Data published in patent US20220313774A1, “INTRANASAL ADMINISTRATION OF MEROTOCIN FOR IMPROVING LACTATION” (FERRING B.V., priority 2019, published 2022).
Like-named read-outs stand apart in the source and are kept apart here. *1 amine or outer side, *2 acyl side, *3 side chain or, on linkers, in order; H or OH if unused. Where a SMILES comes first, the peptide text is derived from it. Bridges are numbered along the chain shown (N, C = ends). [ ]: non-standard residue; d: D form. N(4-F-Bzl)Gly = O=C(O)CNCc1ccc(F)cc1; X1 = O=C(CCC[*:2])[*:1]

Assays:
[1] = Trial 000015 Part 2: pharmacokinetics after multiple intranasal administrations; format: in vivo, human; conditions: female, human, plasma
From the text: The trial was divided into three parts:
Part 2. Ascending multiple i.n. doses.

[2] = Trial 000015 Part 1: pharmacokinetics after single intranasal administration
Description: The first clinical trial in human, Trial 000015, was a double-blind, placebo-controlled, single dose, within dose panel randomised, sequential dose escalating study. The trial was divided into three parts:
Part 1. Ascending single i.n. doses. There were 7 dose panels with 8 healthy women in each dose panel (6 active, 2 placebo). The doses investigated were 5 μg, 15 μg, 50 μg, 100 μg, 200 μg, 300 μg, and 400 μg.
Seven dose levels were investigated: 5, 15, 50, 100, 200, 300, and 400 μg. Each of the doses were administered as a nasal spray based on one or multiple puffs per nostril.
FE 202767 was provided as an isotonic citrate/phosphate buffered solution of pH 5.5 in water in vials containing an extractable volume of 0.9 mL (Table 2). The concentration of FE 202767 was 0.7 mg/mL, to be used appropriately diluted with buffer or, for Part 3, NaCl for injection. The buffer used for FE 202767 was used as placebo in this study.

[3] = in vivo
[4] = multiple doses 50 μg i.n., N = 6
[5] = multiple doses 200 μg i.n., N = 6
[6] = multiple doses 400 μg i.n., N = 6
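Throughout, for dry mouth: subjects reporting: adverse events in healthy women given intranasal doses every 3 h over 45 h (16 doses per panel), each panel with 6 active and 2 placebo subjects.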
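Throughout, for headache: subjects reporting: adverse events in healthy women given intranasal doses every 3 h over 45 h (16 doses per panel), each panel with 6 active and 2 placebo subjects.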
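Throughout, for intensity of all TEAEs: adverse events in healthy women given intranasal doses every 3 h over 45 h (16 doses per panel), each panel with 6 active and 2 placebo subjects.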
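Throughout, for withdrawal due to nausea: adverse events in healthy women given intranasal doses every 3 h over 45 h (16 doses per panel), each panel with 6 active and 2 placebo subjects.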

Description for healthy women: Part 2. Ascending multiple i.n. doses. There were 3 dose panels with 8 healthy women in each dose panel (6 active, 2 placebo). The dosing schedule was every 3 hours for 45 hours, i.e. 16 doses in all. The doses investigated were 50 μg, 200 μg, and 400 μg.
Three dose levels were investigated: the first dose was 50 μg, the second dose was 200 μg (intermediate between the first dose and the maximal tolerated dose in Part 1), and the highest dose was 400 μg (the maximal dose in Part 1).

In the case of `CC[C@H](C)[C@@H]1NC(=O)[C@H](Cc2ccc(O)cc2)NC(=O)CCCSC[C@@H](C(=O)N(CC(=O)N[C@@H](CC(C)C)C(=O)NCC(N)=O)Cc2ccc(F)cc2)NC(=O)[C@H](CC(N)=O)NC(=O)[C@H](CCC(N)=O)NC1=O` [merotocin, Glycinamide, N-(4-mercapto-1-oxobutyl)-L-tyrosyl-L-isoleucyl-Lglutaminyl-L-asparaginyl-L-cysteinyl-N-[(4-fluorophenyl)methyl]glycyl-L-leucyl-, cyclic (1→5)-thioether] (YIQNC[N(4-F-Bzl)Gly]LG-NH2; linker N-5 via X1), the AUC(0-t) ([1]; inhaled or intranasal, 400 ug, multiple i.n. doses every 3 hours, 400 μg, Dose No. 1, read-out: AUCt Geom. mean (% CV)) was 0.0771 ng·h/mL, the AUC(0-t) ([1]; inhaled or intranasal, 400 ug, multiple i.n. doses every 3 hours, 400 μg, Dose No. 1, read-out: AUCt Median) was 0.0702 ng·h/mL and the Cmax ([1]; inhaled or intranasal, 400 ug, multiple i.n. doses every 3 hours, 400 μg, Dose No. 1, read-out: Cmax Geom. mean (% CV)) was 0.156 ng/mL. It also gave a Cmax ([1]; inhaled or intranasal, 400 ug, multiple i.n. doses every 3 hours, 400 μg, Dose No. 1, read-out: Cmax Median) of 0.136 ng/mL, a half-life ([1]; inhaled or intranasal, 400 ug, multiple i.n. doses every 3 hours, 400 μg, Dose No. 1, read-out: t1/2 Harmonic mean (converted)) of 21 min and an AUC(0-t) ([1]; inhaled or intranasal, 400 ug, multiple i.n. doses every 3 hours, 400 μg, Dose No. 2, read-out: AUCt Geom. mean (% CV)) of 0.0888 ng·h/mL. The AUC(0-t) ([1]; inhaled or intranasal, 400 ug, multiple i.n. doses every 3 hours, 400 μg, Dose No. 2, read-out: AUCt Median) was 0.142 ng·h/mL, the Cmax ([1]; inhaled or intranasal, 400 ug, multiple i.n. doses every 3 hours, 400 μg, Dose No. 2, read-out: Cmax Geom. mean (% CV)) was 0.169 ng/mL and the Cmax ([1]; inhaled or intranasal, 400 ug, multiple i.n. doses every 3 hours, 400 μg, Dose No. 2, read-out: Cmax Median) was 0.195 ng/mL. The half-life ([1]; inhaled or intranasal, 400 ug, multiple i.n. doses every 3 hours, 400 μg, Dose No. 2, read-out: t1/2 Harmonic mean (converted)) was 23.4 min, the Tmax ([1]; inhaled or intranasal, 400 ug, multiple i.n. doses every 3 hours, 400 μg, Dose No. 2, read-out: tmax Mean (SD)) was 9.6 min and the Cmax ([1]; inhaled or intranasal, 400 ug, multiple i.n. doses every 3 hours, 400 μg, Dose No. 16, read-out: Cmax Geom. mean (% CV)) was 0.18 ng/mL. For the same compound, the Cmax ([1]; inhaled or intranasal, 400 ug, multiple i.n. doses every 3 hours, 400 μg, Dose No. 16, read-out: Cmax Median) was 0.192 ng/mL, the half-life ([1]; inhaled or intranasal, 400 ug, multiple i.n. doses every 3 hours, 400 μg, Dose No. 16, read-out: t1/2 Median (converted)) was 39 min and the Tmax ([1]; inhaled or intranasal, 400 ug, multiple i.n. doses every 3 hours, 400 μg, Dose No. 16, read-out: tmax Mean (SD)) was 18 min. The Tmax ([1]; other: intranasal, 50 ug, multiple i.n. doses every 3 hours, 50 μg, Dose No. 2, read-out: tmax Mean (SD)) was 20.4 min, the Cmax ([1]; other: intranasal, 50 ug, multiple i.n. doses every 3 hours, 50 μg, Dose No. 16, read-out: Cmax Geom. mean (% CV)) was 0.0236 ng/mL and the Tmax ([1]; other: intranasal, 400 ug, multiple i.n. doses every 3 hours, 400 μg, Dose No. 1, read-out: tmax Mean (SD)) was 6.6 min. For the same compound, the AUC(0-t) ([1]; other: intranasal, 400 ug, multiple i.n. doses every 3 hours, 400 μg, Dose No. 16, read-out: AUCt Geom. mean (% CV)) was 0.112 ng·h/mL, the AUC(0-t) ([1]; other: intranasal, 400 ug, multiple i.n. doses every 3 hours, 400 μg, Dose No. 16, read-out: AUCt Median) was 0.112 ng·h/mL and the half-life ([1]; other: intranasal, 400 ug, multiple i.n. doses every 3 hours, 400 μg, Dose No. 16, read-out: t1/2 Harmonic mean (converted)) was 33.6 min. For the same compound, the half-life ([1]; other: intranasal, multiple i.n. doses, all dose groups, read-out: t1/2) was 25 to 35 min, the Tmax ([1]; other: intranasal, multiple i.n. doses, all dose groups, read-out: tmax) was 12 to 15 min and the Cmax ([2]; female, human, plasma, inhaled or intranasal, 100 ug, Cmax Geom. mean (% CV), single i.n. dose 100 μg, N = 6) was 0.0379 ng/mL. For the same compound, the Cmax ([2]; female, human, plasma, inhaled or intranasal, 100 ug, Cmax Median, single i.n. dose 100 μg, N = 6) was 0.0322 ng/mL, the AUC(0-t) ([2]; female, human, plasma, inhaled or intranasal, 200 ug, AUCt Geom. mean (% CV), single i.n. dose 200 μg, N = 6) was 0.0357 ng·h/mL and the AUC(0-t) ([2]; female, human, plasma, inhaled or intranasal, 200 ug, AUCt Median, single i.n. dose 200 μg, N = 6) was 0.0525 ng·h/mL. The Cmax ([2]; female, human, plasma, inhaled or intranasal, 200 ug, Cmax Geom. mean (% CV), single i.n. dose 200 μg, N = 6) was 0.0841 ng/mL, the Cmax ([2]; female, human, plasma, inhaled or intranasal, 200 ug, Cmax Median, single i.n. dose 200 μg, N = 6) was 0.0999 ng/mL and the AUC(0-t) ([2]; female, human, plasma, inhaled or intranasal, 300 ug, AUCt Geom. mean (% CV), single i.n. dose 300 μg, N = 6) was 0.0778 ng·h/mL. It also gave an AUC(0-t) ([2]; female, human, plasma, inhaled or intranasal, 300 ug, AUCt Median, single i.n. dose 300 μg, N = 6) of 0.0943 ng·h/mL, a Cmax ([2]; female, human, plasma, inhaled or intranasal, 300 ug, Cmax Geom. mean (% CV), single i.n. dose 300 μg, N = 6) of 0.143 ng/mL and a Cmax ([2]; female, human, plasma, inhaled or intranasal, 300 ug, Cmax Median, single i.n. dose 300 μg, N = 6) of 0.148 ng/mL. The Tmax ([2]; female, human, plasma, inhaled or intranasal, 300 ug, tmax Mean (SD), single i.n. dose 300 μg, N = 6) was 12 min, the AUC(0-t) ([2]; female, human, plasma, inhaled or intranasal, 400 ug, AUCt Geom. mean (% CV), single i.n. dose 400 μg, N = 6) was 0.0886 ng·h/mL and the AUC(0-t) ([2]; female, human, plasma, inhaled or intranasal, 400 ug, AUCt Median, single i.n. dose 400 μg, N = 6) was 0.119 ng·h/mL. The Cmax ([2]; female, human, plasma, inhaled or intranasal, 400 ug, Cmax Median, single i.n. dose 400 μg, N = 6) was 0.199 ng/mL, the Tmax ([2]; female, human, plasma, inhaled or intranasal, 400 ug, tmax Mean (SD), single i.n. dose 400 μg, N = 6) was 13.2 min and the Tmax ([2]; female, human, plasma, other: intranasal, tmax, all i.n. dose levels, single or multiple administration) was 12 to 15 min. For the same compound, the Tmax ([2]; female, human, plasma, other: intranasal, tmax, single i.n. dose, all dose groups) was 12 to 15 min, the half-life ([2]; female, human, plasma, other: intranasal, t½, after i.n. administration, Trial 000015 key results) was roughly 30 min and the “increase of exposure (AUC and Cmax) with dose” value ([2]; single i.n. doses) was “close to dose proportional manner”. For the same compound, the “metabolites of merotocin in plasma or urine samples” value [3] was “No metabolites of merotocin could be detected”, the “withdrawal due to nausea” value (healthy women; 400 μg group, multiple doses) was “One subject was withdrawn” and the “dry mouth: subjects reporting” value (healthy women; 200 and 400 μg groups, multiple doses) was 5 subjects. For the same compound, the “intensity of all TEAEs” value (healthy women; after multiple dose administrations) was “mild”, the “headache: subjects reporting” value (healthy women; all treatment groups, multiple doses) was 4 subjects and the “Any AE: number of AEs, E” value (healthy women; [4]) was 3. The “Any AE: subjects with AE, n (%)” value (healthy women; [4]) was 3 (50%), the “Breast tenderness: number of AEs, E” value (healthy women; [4]) was 1 and the “Breast tenderness: subjects with AE, n (%)” value (healthy women; [4]) was 1 (17%). For the same compound, the “Headache: number of AEs, E” value (healthy women; [4]) was 2, the “Headache: subjects with AE, n (%)” value (healthy women; [4]) was 2 (33%) and the “Any AE: number of AEs, E” value (healthy women; [5]) was 5. For the same compound, the “Any AE: subjects with AE, n (%)” value (healthy women; [5]) was 4 (67%), the “Dry mouth: number of AEs, E” value (healthy women; [5]) was 3 and the “Dry mouth: subjects with AE, n (%)” value (healthy women; [5]) was 3 (50%). For the same compound, the “Flushing: number of AEs, E” value (healthy women; [5]) was 1, the “Flushing: subjects with AE, n (%)” value (healthy women; [5]) was 1 (17%) and the “Headache: number of AEs, E” value (healthy women; [5]) was 1. The “Headache: subjects with AE, n (%)” value (healthy women; [5]) was 1 (17%), the “Any AE: number of AEs, E” value (healthy women; [6]) was 6 and the “Any AE: subjects with AE, n (%)” value (healthy women; [6]) was 3 (50%). The “Dry mouth: number of AEs, E” value (healthy women; [6]) was 2, the “Dry mouth: subjects with AE, n (%)” value (healthy women; [6]) was 2 (33%) and the “Flushing: number of AEs, E” value (healthy women; [6]) was 1. For the same compound, the “Flushing: subjects with AE, n (%)” value (healthy women; [6]) was 1 (17%), the “Headache: number of AEs, E” value (healthy women; [6]) was 2 and the “Headache: subjects with AE, n (%)” value (healthy women; [6]) was 1 (17%). For the same compound, the “Nausea: number of AEs, E” value (healthy women; [6]) was 1, the “Nausea: subjects with AE, n (%)” value (healthy women; [6]) was 1 (17%) and the “number of TEAEs reported” value (healthy women; multiple doses, 24 subjects) was 14.
